Measured values as given in article PMC10188280 (Inorganic chemistry, 2022).

How the values were obtained:
[1] = test system: MCF-7 (Breast); assay: MTT antiproliferative assay, 72 h; type: cell-based; settings: read-out: IC50 values MCF-7 (Breast), 72 h exposure, mean ± SDM, n = 3
[2] = test system: SK-OV-3 (Ovary); assay: MTT antiproliferative assay, 72 h; type: cell-based; settings: read-out: IC50 values SK-OV-3 (Ovary), 72 h exposure, mean ± SDM, n = 3
[3] = test system: A2780 cells; assay: Cell cycle analysis by flow cytometry; type: cell-based; settings: 24 h, lower of two concentrations close to 24-h IC50
[4] = test system: Caco-2 (Colon); assay: MTT antiproliferative assay, 72 h; type: cell-based; settings: read-out: IC50 values Caco-2 (Colon), 72 h exposure, mean ± SDM, n = 3
[5] = test system: A2780 (Ovary); assay: MTT antiproliferative assay, 72 h; type: cell-based; settings: read-out: IC50 values A2780 (Ovary), 72 h exposure, mean ± SDM, n = 3
[6] = test system: MDA-MB-231 (Breast); assay: MTT antiproliferative assay, 72 h; type: cell-based; settings: read-out: IC50 values MDA-MB-231 (Breast), 72 h exposure, mean ± SDM, n = 3
[7] = test system: HT-29 (Colon); assay: MTT antiproliferative assay, 72 h; type: cell-based; settings: read-out: IC50 values HT-29 (Colon), 72 h exposure, mean ± SDM, n = 3
[8] = unsubstituted (lacking the N4 phenyl) compound; cited from earlier work

| IC50 [1] [µM] | IC50 [2] [µM] | IC50 [4] [µM] | IC50 [5] [µM] | IC50 [6] [µM] | IC50 [7] [µM] | SMILES | cell cycle distribution at the lower concentration [3] | pKa [8] |
| --- | --- | --- | --- | --- | --- | --- | --- | --- |
| 22.5 ± 0.3 | 9.5 ± 0.5 | 3.9 ± 0.5 | 1.9 ± 0.1 | 4.58 ± 0.03 | 2.3 ± 0.2 | CC(=O)N(O)CCCCCNC(=O)CCC(=O)N(O)CCCCCNC(=O)CCC(=O)N(O)CCCCCN [DFO] | a larger fraction of cells was able to proceed to the S phase but remained unable to reach the G2 phase | – |
| 1.74 ± 0.04 | 2.3 ± 0.2 | 7.3 ± 0.8 | 1.9 ± 0.1 | 4.8 ± 0.2 | 9.5 ± 0.5 | Oc1ccccc1C=NNC(=S)Nc1ccccc1 [STC1] | – | – |
| – | – | – | – | – | – | NC(=S)N/N=C/c1ccccc1O [salicylaldehyde thiosemicarbazone] | – | 8.8 |
